Test results taken from patent US12115161B2, “Prophylactic and/or therapeutic agent for inflammatory diseases which contains pyrrolopyrimidine compound as active ingredient” (KEIO UNIVERSITY, priority 2018, dated 2024).

How the values were obtained:
[1] = tested on: peripheral blood mononuclear cells (PBMC); assay: IgG production by B cell-stimulation culture using peripheral blood mononuclear cells (Example 5); assay type: cell-based, human
Protocol: Peripheral blood mononuclear cells were isolated from normal healthy human peripheral blood by density gradient centrifugation using Ficoll. In the presence of 5 μg/mL anti-human IgM antibody, 1 μg/mL anti-human CD40 antibody, 30 ng/mL recombinant human IL-21, 30 ng/mL recombinant human BAFF, and Compound A (0.4 μM, 2 μM, and 10 μM), 2×10^5 peripheral blood mononuclear cells were cultured using a 10% FBS/RPMI 1640 culture medium in a 5% CO2 environment at 37° C. for seven days. The cells were cultured in 96-well round-bottom culture plates in a scale of 200 μL per well. Seven days later, the supernatant was removed and the culture supernatant was collected to determine the IgG content in the culture supernatant by ELISA. As controls, experiments in the case of not adding Compound A and the case of adding neither Compound A nor BAFF were also performed. Moreover, for comparison with the effects of Compound A, experiments using BIK-13 instead of Compound A were also performed.

MRL/lpr mice = assay: Tissue lesion (lymphocytic infiltration, HE staining) in MRL/lpr mice (Example 9); assay type: in vivo; details: 0.04, 0.2, 1 mg/kg for 16 weeks
Protocol: Present Example was performed simultaneously with Example 6 using MRL/lpr mice. Except for the following exceptions, present Example was performed by the same materials and method as Example 6 above.
After administration in the 16th week, 25-week-old mice were dissected and tissues (lacrimal glands, submandibular glands, and kidneys) were removed. After the removed tissues were rapidly frozen and embedded using O.C.T. compound (Sakura Finetek Japan Co., Ltd.), the frozen tissues were thin sectioned with a cryostat (LEICA CM 1920) and applied on glass slides. After the sections on the glass slides were dried, the tissues were stained by hematoxylin-eosin staining to be observed with a microscope. The hematoxylin-eosin staining was performed in the following procedure: • 1) fixation and washing with an ethanol-formalin-acetic acid fixative; • 2) adding New Hematoxylin solution Type G (Muto Pure Chemicals Co., Ltd.), followed by washing; • 3) adding New Eosin solution Type A (Muto Pure Chemicals Co., Ltd.); • 4) adding 80% ethanol; • 5) adding xylene; and • 6) mounted with Marinol (Muto Pure Chemicals Co., Ltd.) for observation.

[2] = tested on: peripheral blood monocytes and B cells from Sjögren syndrome patients; assay: IgG production in coculture of BAFF-stimulated peripheral blood monocytes and B cells (Example 4); assay type: cell-based, human
Protocol: Monocytes were isolated from Sjögren syndrome patient peripheral blood using CD14 microbeads, and B cells were isolated from the peripheral blood using CD19 microbeads. Using Transwell® culture plates, 2×10^5 monocytes per well were seeded in the upper plate and 1×10^5 B cells in the lower plate to be cultured in the presence of 2 μg/mL recombinant human BAFF (same as Example 2) and Compound A (1 μM and 10 μM) using a 10% FBS/RPMI 1640 culture medium in a 5% CO2 environment at 37° C. for four days (coculture of the peripheral blood monocytes and the B cells via a membrane). Four days later, the supernatant was removed and the culture supernatant was collected to determine the IgG content in the culture supernatant by ELISA. As controls, experiments in the case of not adding Compound A and the case of adding neither Compound A nor BAFF were also performed. Moreover, for comparison with the effects of Compound A, experiments using BIK-13 instead of Compound A were also performed.

NZB/WF1 mice = assay: Anti-dsDNA antibody titer in blood of NZB/WF1 mice (Example 7); assay type: in vivo
Protocol: NZB/WF1 mice (purchased from Japan SLC, Inc.) were used as disease model (may also be referred to as systemic lupus erythematosus (SLE) model) mice producing anti-dsDNA antibodies with age and spontaneously developing glomerulonephritis. Except for the following exceptions, present Example was performed by the same materials and method as Example 6 above.
Experiments were performed as follows: • Group 1: administered a physiological saline solution only (saline); • Group 2: administered 0.2 mg/kg of Compound A; • Group 3: administered 1 mg/kg of Compound A.
NZB/WF1 mice (female) of 20 weeks old were classified into the above three groups (five individuals per group) and predetermined administration was initiated (0 w) on the individuals in each group.
The administration was performed five times a week for 20 weeks by intravenous injection.

Cc1c(C)n(Cc2ccccc2)c2ncnc(OC3CCN(CC(=O)NCC4CC4)CC3)c12 [Compound A, 2-[4-{(7-benzyl-5,6-dimethyl-7H-pyrrolo[2,3-d]pyrimidin-4-yl)oxy}piperidin-1-yl]-N(cyclopropylmethyl)acetamide]
IgG antibody production inhibitory effect compared with the control ([1]; 0.4 μM, 2 μM and 10 μM, anti-IgM, anti-CD40, IL-21 and BAFF stimuli, 7 days): significant (respectively, p<0.05, p<0.01, and p<0.001) IgG antibody production inhibitory effects
cancellation of the IgG antibody production enhancement by BAFF ([1]; 10 μM, compared with adding none): almost completely cancelled
inhibitory effect on IgG antibody production, times stronger than BIK-13 ([1]; PBMC system of Example 5): approximately 25 times
lymphocytic infiltration areas in kidney tissues compared with saline (MRL/lpr mice): reduced
lymphocytic infiltration areas in lacrimal gland tissues compared with saline (MRL/lpr mice): clearly reduced
lymphocytic infiltration areas in submandibular gland tissues compared with saline (MRL/lpr mice): reduced
IgG antibody production inhibitory effect compared with the control (B+mono+BAFF) ([2]; 1 μM and 10 μM with 2 μg/mL human BAFF, 4 days): significant (p<0.01 or p<0.001) IgG antibody production inhibitory effects
cancellation of the IgG antibody production enhancement by BAFF ([2]; 10 μM, compared with adding neither compound nor BAFF): completely cancelled and further the IgG antibody production was inhibited below the basal level
inhibitory effect on IgG antibody production, times stronger than BIK-13 ([2]; coculture system of Example 4): approximately 10 times
anti-dsDNA antibody titer inhibitory effect compared with saline (NZB/WF1 mice; 1 mg/kg, 12th and 16th weeks): significant (respectively, p<0.05) anti-dsDNA antibody titer inhibitory effects
anti-dsDNA antibody titers in the blood compared with saline (NZB/WF1 mice; 0.2 and 1 mg/kg, intravenous injection five times a week, 12 w or later): tendency of decrease
